This is an account of results in publication PMC3584109, “Protective Effect of Borage Seed Oil and Gamma Linolenic Acid on DNA: In Vivo and In Vitro Studies” (PLoS ONE, 2013).

The test system of series [1] is D. melanogaster. Nature of the series: Longevity assay (life span and health span). It counts as in vivo, Drosophila melanogaster. As to conditions: all assayed concentrations of GLA. The procedure: The F1 progeny from […]^3 parental strains produced by 24 h egg-laying in yeast was used. Longevity experiments were carried out at 25°C, following the procedure described by Chavous et al., 2001 [33]. Briefly, synchronised transheterozygous 72±12 h old larvae were washed in distilled water and separated into groups of 100 individuals in vials with a mixture of 0.85 g Drosophila Instant Medium and 4 ml of the different concentrations of the two substances selected. […] Three replicates were used during the complete life span for each control and concentration established. The number of survivors was counted and the medium renewed twice a week. In addition, the Kaplan-Meier estimates of the survival function for each concentration and respective control are plotted as survival curves. Statistical analyses and significance of the curves were assessed using the SPSS 15.0 statistics software (SPSS Inc. Headquarters, Chicago, IL, USA) using the Log-Rank (Mantel-Cox) method.

In series [2] the test system is HL60 cells. Nature of the series: Cytotoxicity assay, Trypan Blue dye exclusion. It counts as cell-based. As to conditions: Homo sapiens, HL-60, 72 h, read-out: IC50 (concentration causing 50% inhibition of cell growth). The procedure:
The human promyelocytic leukaemia cell line HL60 was obtained from Dr. José M. Villalba Montoro (Department of Cell Biology, Univ. Cordoba, Spain), [34]. HL60 cells were incubated in RPMI-1640 medium (Cat N° A1049101, Invitrogen) supplemented with: L-glutamine 200 mM, (Cat N° G7513, Sigma-Aldrich, St. Louis, MO) antibiotics 100× (Cat N° A5955, Sigma-Aldrich, St. Louis, MO) and 10% heat-inactivated foetal bovine serum (Cat N° SO1805, Linus). Cells were maintained at 37°C in an atmosphere of 5% CO2. Cultures were plated at a density of 12.5×10^4cells/ml in 40 ml culture bottles (25 cm^2) and passed every 2 days.
For the assessment of cell viability, HL60 cells were placed in 12 well culture plates (1×10^5 cells/ml) and treated for 72 h with increasing concentrations of borage seed oil and GLA. Cell viability was determined by the Trypan Blue dye exclusion test (T8154, Sigma-Aldrich, St. Louis, MO). Cells were counted by adding an aliquot of 10 µl of the culture to 10 µl of the Trypan Blue dye. The mix was counted under a light inverted microscope using a Neubauer chamber (AE30/31, Motic). Aliquots were taken after 24, 36, 48, 60 and 72 h incubation. […] Curves are expressed as the percentage of survival with respect to controls at 72 h of growth. […]

The test system of series [3] is D. melanogaster. As to conditions: for % of inhibition: calculated according to Abraham (1994). How it is done: (§1) Analysis of the genotoxic and antigenotoxic activities of borage seed oil and GLA, was evaluated by the Drosophila SMART test. Two different Drosophila melanogaster strains carrying visible wing genetic markers were used: the flare (flr) strain flr^3/ln (3LR) TM3, Bd^s and the multiple wing-hair (mwh) strain mwh/mwh. The marker multiple wing hairs (mwh, 3_0.3) is a recessive mutation that is viable in homozygous flies, producing multiple hairs per cell instead of the wild type single-hair trichome. The marker flare (flr^3, 3_38.3) is a recessive mutation which produces individual wing hairs that are malformed. The flr^3 allele is retained via a balancer chromosome carrying multiple inversions and a dominant marker which is homozygous lethal (TM3, Bd^S: Third Multiple 3, Beaded-Serrate). Additional information on genetic markers can be found in [31].
(§2) Crosses were performed with optimally fertile virgin females of the flr3/TM3, Bd^s strain and mwh/mwh males. After 8 h egg-laying, 72±3 h old larvae were washed in distilled water, transferred to fresh vials with 0.85 g Drosophila Instant Medium (formula 4–24, Carolina Biological Supply, Burlington NC, USA) which were wetted with 4 ml after of put solutions of increasing concentrations of the borage seed oil and GLA. Test groups consisting of 100 larvae each were: (i) negative control (distilled water); (ii) mutagenic positive control (hydrogen peroxide 0.12 M); (iii) 5 vials with increasing concentrations of borage seed oil (12.5, 18.7, 31.2, 62.5 and 125 µl/ml); and (iv) 5 vials with increasing concentrations of GLA (8.9, 13, 22, 45 and 90 mM). Taking into account the average daily food intake of D. melanogaster (1 mg/day) and the average body weight of D. melanogaster individuals (1 mg), the concentration range for both borage seed oil and GLA were calculate to fit them into the recommended fat daily intake for humans (60 g of total fat/day for 60 kg human body weight). Emerging adults of all groups were counted and stored in 70% ethanol to be analysed. Procedures are: 1) Toxicity assays evaluated (number of individuals born in treatment/number of individuals born in the negative control)x100. 2) Genotoxicity assays evaluated mutation rate diagnosis of different groups and 3) Antigenotoxicity testing, combined treatments were performed as previously described by Anter et al., 2011 [32], by using hydrogen peroxide 0.12 M as the genotoxicant and the concentrations of borage seed oil and GLA mentioned above in groups (iii) and (iv), evaluating mutation rate diagnosis of different treatments.
(§3) Marker-heterozygous genotypes (mwh/flr^3) were mounted on slides with Faurés solution. Both dorsal and ventral surfaces of the wings containing 22,000 cells were screened under a photonic microscope at 400× magnification for the occurrence of individual spots (mwh or flr phenotype) or twin spots (mwh clone adjacent to flr clone). […] Large individual spots with three or more cells showing mwh or flr phenotypes corresponded to mutational events occurring earlier during larvae development. Twin spots with two juxtaposed clones corresponded uniquely to recombination events between the flr^3 gene and the centromere.
(§4) For the evaluation of genotoxic effects, the frequencies of spots per fly of each treated series were compared to the concurrent negative control for each class of mutational clone. A multiple-decision procedure was used to categorize results as positive, weakly positive, inconclusive, or negative. Statistical analyses were carried out for single, large, twin and total number of spots recovered. Inconclusive and positive data were evaluated by the non-parametric U test of Mann, Whitney and Wilcoxon according to Frei and Würgler 1995 [36]. The inhibition percentage for each compound and treatment was calculated following Abraham, 1994 [37] (hydrogen peroxide alone - substance assayed + hydrogen peroxide / hydrogen peroxide alone) × 100.

In series [4] the test system is D. melanogaster. In words: Toxicity assay: survival of adults from treated 72 h old larvae. The format is in vivo, Drosophila melanogaster. The conditions noted are these: for average toxicities (survival): average over tested concentrations.
Experimental: Crosses were performed with optimally fertile virgin females of the flr3/TM3, Bd^s strain and mwh/mwh males. After 8 h egg-laying, 72±3 h old larvae were washed in distilled water, transferred to fresh vials with 0.85 g Drosophila Instant Medium (formula 4–24, Carolina Biological Supply, Burlington NC, USA) which were wetted with 4 ml after of put solutions of increasing concentrations of the borage seed oil and GLA. […] Taking into account the average daily food intake of D. melanogaster (1 mg/day) and the average body weight of D. melanogaster individuals (1 mg), the concentration range for both borage seed oil and GLA were calculate to fit them into the recommended fat daily intake for humans (60 g of total fat/day for 60 kg human body weight). Emerging adults of all groups were counted and stored in 70% ethanol to be analysed. Procedures are: 1) Toxicity assays evaluated (number of individuals born in treatment/number of individuals born in the negative control)x100.
Series [5] has as its system D. melanogaster. As to conditions: in vivo. How it is done:
as §1, §2, §3, §4

The test system of series [6] is leukocytes (HL-60, Jurkat and Raji cells). Further details: method as in PMID 12489694. As to conditions: cited from earlier work.
Series [7] has as its system human hepatoma HepG2 cells (E9 cells). Further details: method as in PMID 9660301. As to conditions: cited from earlier work.

Structures are written as SMILES. Read-outs that look alike come from different tables or passages of the source. Marks after values point to notes of the source that are not given here.

With `CCCCC/C=C\C/C=C\C/C=C\CCCCC(=O)O` [GLA, all cis-6,9,12-octadecatrienoic acid], the “effect on life span” value in series [1] is on record as “decreased the mean survival time significantly”. The IC50 in series [2] was 87 µM. Also, the “Mutation rate (Spots per wing) Large single spots (>2 cells) m = 5” value in series [3] (GLA 8.9 mM + H2O2 0.12 M) is recorded as 0.02 (1) spots per wing; in series [3] (GLA 13 mM + H2O2 0.12 M) it was 0 spots per wing; in series [3] (GLA 22 mM + H2O2 0.12 M), 0 spots per wing; in series [3] (GLA 45 mM + H2O2 0.12 M) it was 0.03 (1) spots per wing; in series [3] (GLA 90 mM + H2O2 0.12 M), 0.06 (1) spots per wing. The “Mutation rate (Spots per wing) Small single spots (1–2 cells) m = 2” value was 0.3 (15) spots per wing in series [3] (GLA 8.9 mM + H2O2 0.12 M); 0.25 (3) spots per wing in series [3] (GLA 13 mM + H2O2 0.12 M); 0.39 (11) spots per wing in series [3] (GLA 22 mM + H2O2 0.12 M); 0.19 (5) spots per wing in series [3] (GLA 45 mM + H2O2 0.12 M); 0.18 (3) spots per wing in series [3] (GLA 90 mM + H2O2 0.12 M). For the same molecule, the “Mutation rate (Spots per wing) Total spots m = 2” value turned out to be 0.32 spots per wing in series [3] (GLA 8.9 mM + H2O2 0.12 M); 0.25 spots per wing in series [3] (GLA 13 mM + H2O2 0.12 M); 0.42 spots per wing in series [3] (GLA 22 mM + H2O2 0.12 M); 0.26 spots per wing in series [3] (GLA 45 mM + H2O2 0.12 M); 0.25 spots per wing in series [3] (GLA 90 mM + H2O2 0.12 M). Besides, the “Mutation rate (Spots per wing) Twin spots m = 5” value in series [3] (GLA 8.9 mM + H2O2 0.12 M) is reported as 0 spots per wing; in series [3] (GLA 13 mM + H2O2 0.12 M) it was 0 spots per wing; in series [3] (GLA 22 mM + H2O2 0.12 M), 0.03 (1) spots per wing; in series [3] (GLA 45 mM + H2O2 0.12 M), 0.03 (1) spots per wing; in series [3] (GLA 90 mM + H2O2 0.12 M) it was 0 spots per wing. Also, the “% of inhibition” value in series [3] (GLA 8.9 mM + H2O2 0.12 M) was 37%; in series [3] (GLA 13 mM + H2O2 0.12 M), 51%; in series [3] (GLA 22 mM + H2O2 0.12 M), 17%; in series [3] (GLA 45 mM + H2O2 0.12 M), 49%; in series [3] (GLA 90 mM + H2O2 0.12 M) it was 51%. Further, the “antigenotoxicity” value in series [3] (compared to hydrogen peroxide) was “antimutagenic”. In addition, in series [3] (over all concentrations), the “inhibitory potential against hydrogen peroxide, weighted average” value is 38.1%. For the same molecule, the “Survival % Simple treatment” value in series [4] (GLA 8.9 mM (lowest concentration)) is listed as 99%; in series [4] (GLA 8.9 mM (lowest concentration), listed as Gamma-linolenic acid) it was 99.25%; in series [4] (GLA 13 mM), 66.66*** %; in series [4] (GLA 22 mM) it was 39.25*** %; in series [4] (GLA 45 mM), 50.37*** %; in series [4] (GLA 90 mM) it was 20.74*** %. The “Survival % Combined Treatment” value in series [4] (GLA 8.9 mM + 0.12 M hydrogen peroxide) was 48.88*** %; in series [4] (GLA 13 mM + 0.12 M hydrogen peroxide), 22.22*** %; in series [4] (GLA 22 mM + 0.12 M hydrogen peroxide) it was 39.25*** %; in series [4] (GLA 45 mM + 0.12 M hydrogen peroxide), 37.77*** %; in series [4] (GLA 90 mM + 0.12 M hydrogen peroxide) it was 32.59*** %. The decrease in survival in series [4] (GLA, next higher concentration after the lowest (13 mM)) came to 66%. The “toxicity to D. melanogaster” value in series [4] (lowest concentration of GLA) is recorded as “non-toxicity”. In addition, the figures for the “average toxicities (survival)” value in series [4] (plus hydrogen peroxide as a toxicant) and in series [4] (simple treatment) were 31% and 55%, respectively. Moreover, the “weighted average of induced spots/wing” value in series [5] (Drosophila melanogaster) turned out to be 0.23 spots/wing. The “genotoxicity” value in series [5] is recorded as “non-genotoxic”.

As for `CCCCC/C=C\C/C=C\C/C=C\C/C=C\CCCC(=O)O` [arachidonic acid], in series [6] (high concentrations), the “concentrations with necrotic effect” value is 400 to 1600 µM. The “concentrations with apoptotic effect” value in series [6] (low concentrations) was 10 to 400 µM. Also, the “toxicity to E9 cells” value in series [7] (pretreatment with 0.03 mM) is listed as “significant toxicity”.

Turning to `OO` [hydrogen peroxide], the Total spots diagnosis entry in series [3] (in vivo) is given as “+”. Besides, the “Survival percentage for 0.12 M hydrogen peroxide alone treatments” value in series [4] (0.12 M hydrogen peroxide alone) is 84.44^(4) %. Moreover, in series [5], the “Mutation rate (Spots per wing) Large single spots (>2 cells) m = 5” value is recorded as 0.03 (12) spots per wing, the “Mutation rate (Spots per wing) Small single spots (1–2 cells) m = 2” value is recorded as 0.46 (126) spots per wing, the “Mutation rate (Spots per wing) Total spots m = 2” value worked out at 0.51 spots per wing and the “Mutation rate (Spots per wing) Twin spots m = 5” value was 0.01 (3) spots per wing. For the same molecule, in series [5], the “N° of emerging adults” value is recorded as 328 and the Total spots diagnosis result is recorded as “+”.

`CCCCCCCC/C=C\CCCCCCCC(=O)O` [oleic acid, cis-9 octadecenoic]: the “toxicity to E9 cells” value in series [7] (0.05 mM) was “no significant toxicity”.
